Data published in patent US20230374030A1, “SOLID-STATE FORMS OF RELUGOLIX” (MACFARLAN SMITH LIMITED, priority 2019, published 2023).

Key:
Format in all cases: physicochemical
[1] = Dynamic vapor sorption (DVS); conditions: for weight loss in DVS: relative humidity about 0 to 95%
Procedure: DVS samples are analyzed using a TA Instruments Q5000SA gravimetric water sorption analyzer. The relative humidity is adjusted between about 0-95% and the weight of the sample is continuously monitored and recorded with respect to the relative humidity and time.

[2] = Solid-state stability under humidity (storage at high humidity; XRPD after DVS); conditions: for stability at various humidity levels: XRPD analysis after DVS
[3] = Solid-state stability on drying under vacuum
Procedure: Form A of the DMF solvate of relugolix is stable, i.e., it is unchanged after prolonged drying (e.g., about 2 days) under vacuum at about 70° C.

water absorption in DVS (and secretion of it all) ([1]; relative humidity about 0 to about 95%) | stability at various humidity levels [2] | weight loss in DVS [1] | XRPD changes after drying ([3]; about 18 hours at about 30° C. under vacuum) | loss of mass in DVS ([1]; at about 90% RH) | stability after prolonged drying ([3]; about 2 days under vacuum at about 70° C.) | stability under humidity ([2]; about 97% humidity, ambient temperatures, over a month) | Compound
~2% | remains stable | – | – | – | – | – | CONC(=O)Nc1ccc(-c2sc3c(c2CN(C)C)c(=O)n(-c2ccc(OC)nn2)c(=O)n3Cc2c(F)cccc2F)cc1 [Form C of anhydrous relugolix, 1-[4-[1-[(2,6-difluorophenyl)-methyl]-5-[(dimethylamino)methyl]-3-(6-methoxypyridazin-3-yl)-2,4-dioxothieno-[2,3-d]pyrimidin-6-yl]phenyl]-3-methoxyurea]
– | remains stable | about 7% | – | – | – | – | CONC(=O)Nc1ccc(-c2sc3c(c2CN(C)C)c(=O)n(-c2ccc(OC)nn2)c(=O)n3Cc2c(F)cccc2F)cc1 [Form B of anhydrous relugolix, 1-[4-[1-[(2,6-difluorophenyl)-methyl]-5-[(dimethylamino)methyl]-3-(6-methoxypyridazin-3-yl)-2,4-dioxothieno-[2,3-d]pyrimidin-6-yl]phenyl]-3-methoxyurea]
– | remains stable | about 2% | no changes | – | – | – | CONC(=O)Nc1ccc(-c2sc3c(c2CN(C)C)c(=O)n(-c2ccc(OC)nn2)c(=O)n3Cc2c(F)cccc2F)cc1 [Form A of anhydrous relugolix, 1-[4-[1-[(2,6-difluorophenyl)-methyl]-5-[(dimethylamino)methyl]-3-(6-methoxypyridazin-3-yl)-2,4-dioxothieno-[2,3-d]pyrimidin-6-yl]phenyl]-3-methoxyurea]
– | – | – | – | about 1% | unchanged | remains unchanged | CONC(=O)Nc1ccc(-c2sc3c(c2CN(C)C)c(=O)n(-c2ccc(OC)nn2)c(=O)n3Cc2c(F)cccc2F)cc1 [Form A of the DMF solvate of relugolix, 1-[4-[1-[(2,6-difluorophenyl)-methyl]-5-[(dimethylamino)methyl]-3-(6-methoxypyridazin-3-yl)-2,4-dioxothieno-[2,3-d]pyrimidin-6-yl]phenyl]-3-methoxyurea]
